In patent publication US10350188B2, “Use of Neu1 sialidase inhibitors in the treatment of cancer” (priority 2011, dated 2019):

Tests used:
[1] = biological target: Neu1 sialidase (Mus musculus, UniProt O35657); test: LPS-induced Neu1 sialidase activity in live BMA macrophage cells (4-MUNANA); format: cell-based; design: endogenous in cells; host or cells: BMA macrophage cells; settings: LPS-induced Neu1 sialidase activity, live BMA macrophage cells
Description: TLR-expressing BMA macrophage cells were grown on 12 mm circular glass slides in culture media containing DMEM supplemented with 10% fetal calf serum. […] Fluorescent images were taken after 2-3 minutes using epi-fluorescent microscopy (Zeiss Imager M2, 40× objective).
This recently developed assay was used to detect sialidase activity on the surface of viable cells. […] The inhibitory potency of a series of amide-linked C9 modified DANA (2-deoxy-2,3-dehydro-D-N-acetylneuraminic add) analogues on lipopolysaccharide (LPS)-induced Neu1 sialidase activity was assessed in live BMA macrophage cells.

[2] = tested on: MiaPaCa-2 cells; test: Cell viability of MiaPaCa-2 pancreatic cancer cells in culture (MTT or WST-1, 72 hrs); format: cell-based, human; settings: for LD50 MiaPaCa-2: oseltamivir phosphate analogues (TD), WST-1, 72 hrs; for Chemo-drug LD50 / Chemo-drug sensitivity with oseltamivir phosphate (fold increase): MiaPaCa-2; for Chemo-drug LD50: MTT, 72 hrs
[3] = tested on: PANC-1 cells; test: Cell viability of PANC-1 pancreatic cancer cells in culture (MTT or WST-1, 72 hrs); format: cell-based, human; settings: for LD50 PANC-1: oseltamivir phosphate analogues (TD), WST-1, 72 hrs; for Chemo-drug LD50 / Chemo-drug sensitivity with oseltamivir phosphate (fold increase): PANC-1; for Chemo-drug LD50: MTT, 72 hrs
[4] = tested on: MiaPaCa-2-eGFP pancreatic cancer cells implanted in RAG2/Cγ double mutant Balbc xenograft mice; test: MiaPaCa-2-eGFP pancreatic cancer xenograft in RAG2/Cγ double mutant Balbc mice; format: in vivo, mouse; settings: for Liver metastasis percent inhibition: vs untreated day 51
Description: Tumour measurements were taken twice a week.
MiaPaCa-2-eGFP pancreatic cancer cells at 1.5×10^6 in 0.2 mL were implanted subcutaneously in the right back flank of these mice. Each mouse in the study was identified by an ear punch number. Twice a week each mouse following implantation of the cancer cells was monitored for tumour volume growth (length and width) at the site of implantation, body weights, and body condition scoring. Scoring the body condition of rodents is a non-invasive method for assessing health and establishing endpoints for adults where body weight is not a viable monitoring tool, such as with tumour models. Body condition scores (BC) range from 1(emaciation) to 5 (obesity). An anticipated BCS of 2—under conditioned—or lower, requires justification in the protocol. Scores are determined by frequent visual and hands-on examination of each animal. The hands-on evaluation is done by gently holding the mouse by the base of the tail and passing a finger over the sacroiliac bones. The findings are matched to the descriptions and diagrams of BC ranges to determine a score. Scores are documented for each animal.

[5] = tested on: BxPC-3 cells; test: Cell viability of BxPC-3 pancreatic cancer cells in culture (MTT or WST-1, 72 hrs); format: cell-based, human; settings: BxPC-3; for Chemo-drug LD50: MTT, 72 hrs
[6] = chemo-drug + oseltamivir phosphate 10 mg/kg daily, Altima day 70, Abraxane day […]
[7] = chemo-drug alone, Altima 100 mg/kg day 70, Abraxane 200 mg/kg day 87
[8] = day 48, chemo-drug (alimta 100, abraxane 200 mg/kg) + oseltamivir phosphate 10 mg/kg daily i.p.
[9] = day 48, chemo-drug alone (alimta 100 mg/kg, abraxane 200 mg/kg i.p.)
[10] = day 63, chemo-drug (alimta 100, abraxane 200 mg/kg) + oseltamivir phosphate 10 mg/kg daily
[11] = day 63, chemo-drug alone (alimta 100 mg/kg, abraxane 200 mg/kg)
[12] = co-treatment oseltamivir phosphate 730 μM
[13] = co-treatment oseltamivir phosphate 1460 μM
[14] = day 62, tamoxifen 0.1 mg/kg alone or with oseltamivir phosphate 100 mg/kg daily
[15] = day 66, tamoxifen 0.1 mg/kg alone or with oseltamivir phosphate 100 mg/kg daily

For `CCCCC(=O)NC[C@H](O)[C@H](O)C1OC(C(=O)O)=CC(O)[C@H]1NC(C)=O` (stereo partly shown) [B5], the IC50 [1] was 1.45 µM.

In the case of `CC(=O)N[C@H]1[C@H](O)C=C(C(=O)[O-])C[C@@H]1N.[Na+]` [A2, Sodium; 4-acetylamino-5-amino-3-hydroxy-cyclohex-1-enecarboxylate], the “LD50 MiaPaCa-2” value [2] is reported as 1.97 µM and the “LD50 PANC-1” value [3] is reported as 0.01 µM.

`CCC(C)C(=O)NC[C@H](O)[C@H](O)C1OC(C(=O)O)=CC(O)[C@H]1NC(C)=O` (stereo partly shown) [B2] gave an IC50 [1] of 29.7 µM.

Compound `CCC(CC)C(=O)NC[C@H](O)[C@H](O)C1OC(C(=O)O)=CC(O)[C@H]1NC(C)=O` (stereo partly shown) [B8] has an IC50 [1] of 1050 µM.

In the case of `CC(=O)N[C@@H]1CC[C@@](O)(C(=O)[O-])[C@H]2OC(C)(C)O[C@@H]12.[Na+]`, the “LD50 MiaPaCa-2” value [2] is reported as 2.1 µM and the “LD50 PANC-1” value [3] is reported as greater than 1000 µM.

`CCCC(=O)NC[C@H](O)[C@H](O)C1OC(C(=O)O)=CC(O)[C@H]1NC(C)=O` (stereo partly shown) [B1] was tested, and the IC50 [1] was 0.0138 µM.

`CC(=O)N[C@@H]1C(O)C=C(C(=O)O)OC1[C@@H](O)[C@@H](O)CNC(=O)C(C)(C)C` (stereo partly shown) [B10] showed an IC50 [1] of 411 µM.

In the case of `CC(=O)NC[C@H](O)[C@H](O)C1OC(C(=O)O)=CC(O)[C@H]1NC(C)=O` (stereo partly shown) [B4], the IC50 [1] is reported as 2.98 µM.

`CC(=O)N[C@@H]1/C(=N/O)C=C(C(=O)[O-])[C@H]2OC(C)(C)O[C@H]21.[Na+]` [A5, Sodium; 7-acetylamino-6-hydroxyimino-2,2-dimethyl-3a,6,7,7a-tetrahydro-benzo[1,3]dioxole-4-carboxylate] was tested, and the “LD50 MiaPaCa-2” value [2] was 24 µM and the “LD50 PANC-1” value [3] was 3 µM.

`Nc1nc2[nH]cc(CCc3ccc(C(=O)N[C@@H](CCC(=O)O)C(=O)O)cc3)c2c(=O)[nH]1` [alimta, Pemetrexed] was tested, and the “Survival of tumour bearing mice” value ([4]; chemo-drug (Alimta 100, Abraxane 200 mg/kg) + oseltamivir phosphate 10 mg/kg daily, untreated control day 51) was 70 days, the “Liver Metastasis (avg no. nodules)” value ([4]; chemo-drug + oseltamivir phosphate 10 mg/kg daily, Altima 100 mg/kg day 70, Abraxane 200 mg/kg day […]) was 3 and the “Metastases (size, mm)” value [4, 6] was 0.2-0.5 mm. The “Liver metastasis percent inhibition” value [4, 6] was 91%, the “Liver Metastasis (avg no. nodules)” value [4, 7] was 5 and the “Metastases (size, mm)” value [4, 7] was 0.2-1.0 mm. For the same compound, the “Liver metastasis percent inhibition” value [4, 7] was 85%, the “Survival of tumour bearing mice” value ([4]; chemo-drug monotherapy (Alimta 100 mg/kg, Abraxane 200 mg/kg), untreated control day 51) was 70 days and the “% Inhibition To untreated” value [4, 8] was 77%. The Tumour volume [4, 8] was 189 mm^3, the “% Inhibition To untreated” value ([4]; day 48, chemo-drug (alimta 100, abraxane 200 mg/kg) + oseltamivir phosphate 10 mg/kg daily i.p., listed as Almita) was 77% and the “% Inhibition To untreated” value [4, 9] was 72%. For the same compound, the Tumour volume [4, 9] was 225 mm^3, the “% Inhibition To untreated” value [4, 10] was 3% and the Tumour volume [4, 10] was 787 mm^3. For the same compound, the “% Inhibition To untreated” value [4, 11] was 40% and the Tumour volume [4, 11] was 482 mm^3.

`CC(=O)N[C@@H]1C(O)C=C(C(=O)O)OC1[C@@H](O)[C@@H](O)CNC(=O)C1CC1` (stereo partly shown) [B9] was tested, and the IC50 [1] was 1120 µM.

With `CC(=O)N[C@@H]1C(O)C=C(C(=O)O)OC1[C@@H](O)[C@@H](O)CNC(=O)C(C)C` (stereo partly shown) [B7] the IC50 [1] was 683 µM.

`CC/C(=C(\c1ccccc1)c1ccc(OCCN(C)C)cc1)c1ccccc1` [tamoxifen, Tamoxifen] was tested, and the “Chemo-drug LD50” value [2, 12] was 0.8 µM, the “Chemo-drug LD50” value [2, 13] was 0.078 µM and the “Chemo-drug LD50” value ([2]; oseltamivir phosphate 0 μM) was 7.0 µM. For the same compound, the “Chemo-drug sensitivity with oseltamivir phosphate (fold increase)” value (from here on “Chemo-drug sensitivity … (fold increase)”) ([2]; oseltamivir phosphate 730 μM) was 9 fold increase, the “Chemo-drug sensitivity … (fold increase)” value ([2]; oseltamivir phosphate 1460 μM) was 90 fold increase and the “Chemo-drug LD50” value [3, 12] was 0.8 µM. For the same compound, the “Chemo-drug LD50” value [3, 13] was 0.078 µM, the “Chemo-drug LD50” value ([3]; oseltamivir phosphate 0 μM) was 12.5 µM and the “Chemo-drug sensitivity … (fold increase)” value ([3]; oseltamivir phosphate 730 μM) was 16 fold increase. The “Chemo-drug sensitivity … (fold increase)” value ([3]; oseltamivir phosphate 1460 μM) was 160 fold increase, the “Chemo-drug LD50” value [5, 12] was 3 µM and the “Chemo-drug LD50” value [5, 13] was 0.078 µM. The “Chemo-drug LD50” value ([5]; oseltamivir phosphate 0 μM) was 9 µM, the “Chemo-drug sensitivity … (fold increase)” value ([5]; oseltamivir phosphate 730 μM) was 3 fold increase and the “Chemo-drug sensitivity … (fold increase)” value ([5]; oseltamivir phosphate 1460 μM) was 115 fold increase. For the same compound, the “% Inhibition To untreated” value ([4]; day 59, tamoxifen 0.1 mg/kg alone or with oseltamivir phosphate 100 mg/kg daily) was 57%, the Tumour volume ([4]; day 59, tamoxifen 0.1 mg/kg i.p. alone or with oseltamivir phosphate 100 mg/kg i.p. daily) was 960 ± 208 (4) mm^3 and the “% Inhibition To untreated” value [4, 14] was 21%. For the same compound, the Tumour volume [4, 14] was 1738 ± 328 (4) mm^3, the “% Inhibition To untreated” value [4, 15] was 0% and the Tumour volume [4, 15] was 2650 ± 360 (3) mm^3. For the same compound, the “Survival of tumour bearing mice” value ([4]; tamoxifen 0.1 mg/kg alone or with oseltamivir phosphate 100 mg/kg daily, untreated control day 60) was 66 days.

`O=c1[nH]cc(F)c(=O)[nH]1` [5-fluoruracil, Fluorouracil] was tested, and the “Chemo-drug LD50” value [2, 12] was 0.6 µM, the “Chemo-drug LD50” value [2, 13] was 0.078 µM and the “Chemo-drug LD50” value ([2]; oseltamivir phosphate 0 μM) was 2.20 µM. For the same compound, the “Chemo-drug sensitivity … (fold increase)” value ([2]; oseltamivir phosphate 730 μM) was 4 fold increase, the “Chemo-drug sensitivity … (fold increase)” value ([2]; oseltamivir phosphate 1460 μM) was 28 fold increase and the “Chemo-drug LD50” value [3, 12] was 0.8 µM. The “Chemo-drug LD50” value [3, 13] was 0.078 µM, the “Chemo-drug LD50” value ([3]; oseltamivir phosphate 0 μM) was 3.1 µM and the “Chemo-drug sensitivity … (fold increase)” value ([3]; oseltamivir phosphate 730 μM) was 4 fold increase. The “Chemo-drug sensitivity … (fold increase)” value ([3]; oseltamivir phosphate 1460 μM) was 40 fold increase, the “Chemo-drug LD50” value [5, 12] was 0.78 µM and the “Chemo-drug LD50” value [5, 13] was 0.078 µM. For the same compound, the “Chemo-drug LD50” value ([5]; oseltamivir phosphate 0 μM) was 12.5 µM, the “Chemo-drug sensitivity … (fold increase)” value ([5]; oseltamivir phosphate 730 μM) was 16 fold increase and the “Chemo-drug sensitivity … (fold increase)” value ([5]; oseltamivir phosphate 1460 μM) was 160 fold increase.

With `CCOC1C(C(=O)[O-])=C[C@@H](O)[C@@H](NC(C)=O)[C@@H]1O.[Na+]` (stereo partly shown) [A1, Sodium; 4-acetylamino-6-ethoxy-3,5-dihydroxy-cyclohex-1-enecarboxylate] the “LD50 MiaPaCa-2” value [2] was 132 µM and the “LD50 PANC-1” value [3] was 848 µM.

`CC(=O)N[C@@H]1C(O)C=C(C(=O)O)OC1[C@@H](O)[C@@H](O)CNC(=O)C1CCCCC1` (stereo partly shown) [B3] gave an IC50 [1] of 0.0039 µM.

`CC(=O)N[C@@H]1C(O)C=C(C(=O)O)OC1[C@@H](O)[C@@H](O)CNC(=O)C1CCCC1` (stereo partly shown) [B6] showed an IC50 [1] of 76.6 µM.

`CC(=O)N[C@H]1[C@@H]2OC(C)(C)O[C@@H]2C(C(=O)[O-])=C[C@H]1O.[Na+]` was tested, and the “LD50 MiaPaCa-2” value [2] was 2.8 µM and the “LD50 PANC-1” value [3] was 349 µM.

In the case of `CCC(CC)O[C@@H]1C=C(C(=O)[O-])[C@H]2OC(C)(C)O[C@H]2[C@H]1NC(C)=O.[Na+]` [A6, Sodium; 7-acetylamino-6-(1-ethyl-propoxy)-2,2-dimethyl-3a,6,7,7a-tetrahydro-benzo[1,3]dioxole-4-carboxylate], the “LD50 MiaPaCa-2” value [2] is reported as greater than 2000 µM and the “LD50 PANC-1” value [3] is reported as greater than 2000 µM.
